The source of these data is patent US6417212B1, “Modulators of peroxisome proliferator activated receptors” (Eli Lilly & Company, priority 1999, dated 2002).

For one test, the target named is T1, huPPARα (Homo sapiens, UniProt Q07869).
T1 sequence (Q07869 1-468): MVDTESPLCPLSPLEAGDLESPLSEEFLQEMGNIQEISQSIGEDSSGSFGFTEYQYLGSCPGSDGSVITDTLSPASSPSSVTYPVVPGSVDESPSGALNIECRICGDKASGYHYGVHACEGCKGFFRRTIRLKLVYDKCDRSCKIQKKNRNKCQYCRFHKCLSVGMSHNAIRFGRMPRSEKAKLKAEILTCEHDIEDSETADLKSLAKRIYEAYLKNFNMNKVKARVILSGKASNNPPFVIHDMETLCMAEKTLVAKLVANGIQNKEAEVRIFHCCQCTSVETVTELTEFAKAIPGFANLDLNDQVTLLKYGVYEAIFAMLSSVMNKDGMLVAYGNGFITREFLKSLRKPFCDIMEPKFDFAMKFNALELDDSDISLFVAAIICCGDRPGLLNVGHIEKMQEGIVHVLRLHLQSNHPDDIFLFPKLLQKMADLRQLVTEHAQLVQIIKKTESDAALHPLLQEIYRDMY
T1 sequence (P19793 1-462 partner): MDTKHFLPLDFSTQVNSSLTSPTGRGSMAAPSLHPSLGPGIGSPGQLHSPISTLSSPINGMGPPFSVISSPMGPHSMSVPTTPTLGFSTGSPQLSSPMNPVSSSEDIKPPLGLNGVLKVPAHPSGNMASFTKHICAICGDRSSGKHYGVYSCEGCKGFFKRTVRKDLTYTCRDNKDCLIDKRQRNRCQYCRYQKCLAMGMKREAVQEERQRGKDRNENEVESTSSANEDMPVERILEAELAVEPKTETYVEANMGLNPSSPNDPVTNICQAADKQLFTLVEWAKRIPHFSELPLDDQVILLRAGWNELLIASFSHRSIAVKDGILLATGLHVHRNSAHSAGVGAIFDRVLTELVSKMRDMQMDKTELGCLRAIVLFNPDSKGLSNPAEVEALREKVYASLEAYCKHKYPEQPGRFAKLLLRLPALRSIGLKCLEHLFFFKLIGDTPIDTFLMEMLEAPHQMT
Kind of test: DNA-dependent binding (ABCD binding), SPA, huPPARα. Particulars: displacement of tritium-labeled PPARα agonist radioligand. How it is done:
(§1) DNA-dependent binding (ABCD binding) was carried out using SPA technology with PPAR receptors. Tritium-labeled PPARγ and PPARα agonists were used as radioligands for generating displacement curves and IC50 values with compounds of the invention. Cotransfection assays were carried out in CV-1 cells. The reporter plasmid contained an acylCoA oxidase (AOX) PPRE and TK promoter upstream of the luciferase reporter cDNA. Appropriate PPARs and RXRα were constitutively expressed using plasmids containing the CMV promoter. […] In order to eliminate such interference, a GAL4 chimeric system was used in which the DNA binding domain of the transfected PPAR was replaced by that of GAL4, and the GAL4 response element was utilized in place of the AOX PPRE. Cotransfection efficacy was determined relative to PPARα agonist and […] reference molecules. Efficacies were determined by computer fit to a concentration-response curve, or in some cases at a single high concentration of agonist (10 μM). For binding or cotransfection studies with receptors other than PPARs, similar assays were carried out using appropriate ligands, receptors, reporter constructs, etc., for that particular receptor.
(§2) These studies were carried out to evaluate the ability of compounds of the invention to bind to and/or activate various nuclear transcription factors, particularly huPPARα (“hu” indicates “human”) and huPPARγ. These studies provide in vitro data concerning efficacy and selectivity of compounds of the invention. Furthermore, binding and cotransfection data for compounds of the invention were compared with corresponding data for marketed compounds that act on either huPPARα or huPPARγ.

The target of a further test is T2, huPPARγ (Homo sapiens, UniProt P37231).
T2 sequence (P37231 1-505): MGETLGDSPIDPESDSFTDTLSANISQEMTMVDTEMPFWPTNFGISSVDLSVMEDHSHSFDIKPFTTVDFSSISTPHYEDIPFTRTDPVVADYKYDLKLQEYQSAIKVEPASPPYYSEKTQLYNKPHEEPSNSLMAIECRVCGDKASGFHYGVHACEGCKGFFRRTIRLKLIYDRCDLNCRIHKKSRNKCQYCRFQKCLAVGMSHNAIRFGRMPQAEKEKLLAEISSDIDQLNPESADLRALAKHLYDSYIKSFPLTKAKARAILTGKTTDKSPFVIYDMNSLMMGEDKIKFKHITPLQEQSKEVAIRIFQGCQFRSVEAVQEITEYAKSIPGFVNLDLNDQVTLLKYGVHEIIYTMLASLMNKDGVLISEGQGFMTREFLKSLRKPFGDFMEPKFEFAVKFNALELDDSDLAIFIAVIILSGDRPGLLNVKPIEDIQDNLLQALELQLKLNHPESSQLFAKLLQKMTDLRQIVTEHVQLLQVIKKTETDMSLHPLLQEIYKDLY
T2 sequence (P19793 1-462 partner): T1 sequence (P19793 1-462 partner)
Nature of the test: DNA-dependent binding (ABCD binding), SPA, huPPARγ. Conditions: displacement of tritium-labeled PPARγ agonist radioligand. How it is done:
as §1, §2

For another test, the system named is db/db mice. Kind of test: Evaluation of glucose levels in db/db mice. It is filed as in vivo. Conditions: Mus musculus, 168 h; 30 mg/kg daily oral gavage for 7 days; 100% = glucose not different from lean values; read-out: Glucose Normalisation. How it is done:
After an acclimation period of 2 weeks, animals were individually identified by ear notches, weighed, and bled via the tail vein for determination of initial glucose levels. Blood was collected (100 μl) from unfasted animals by wrapping each mouse in a towel, cutting the tip of the tail with a scalpel, and milking blood from the tail into a heparinized capillary tube (Fisher) balanced on the edge of the bench. Sample was discharged into a heparinized microtainer with gel separator (VWR) and retained on ice. Plasma was obtained after centrifugation at 4° C. and glucose measured immediately. Remaining plasma was frozen until the completion of the experiment, when glucose and triglycerides were assayed in all samples. Animals were grouped based on initial glucose levels and body weights. Beginning the following morning, mice were dosed daily by oral gavage for 7 days using a 20 gauge, 1½″ curved disposable feeding needle. […] On day 7, mice were weighed and bled (tail vein) 3 hours after dosing. Twenty-four hours after the 7th dose (i.e., day 8), animals were bled again (tail vein). Samples obtained from conscious animals on days 0, 7 and 8 were assayed for glucose. After the 24 hour bleed, animals were weighed and dosed for the final time. Three hours after dosing on day 8, animals were anesthetized by inhalation of isoflurane and blood obtained via cardiac puncture (0.5-0.7 ml). Whole blood was transferred to serum separator tubes, chilled on ice and permitted to clot. Serum was obtained after centrifugation at 4° C. and frozen until analysis for compound levels. After sacrifice by cervical dislocation, the liver, heart and epididymal fat pads were excised and weighed.
The absorbance of the dye produced is linearly related to the analyte in the sample. The assays were further modified in our laboratory for use in a 96 well format. […] An additional aliquot of sample, pipetted to a third well and diluted in 200 μl water, provided a blank for each specimen. […] Sample absorbances were compared to a standard curve (100-800, 10-500, and 100-400 mg/dl for glucose, triglycerides and total cholesterol, respectively). […] All samples from an experiment were assayed at the same time to minimize inter-assay variability.

pIC50: −log10 of the molar value.

On to `Cc1oc(-c2ccc(-c3c(F)cccc3F)cc2)nc1CCOc1ccc(OC(C)(C)C(=O)O)cc1` [Example 14, 2-(4-{2-[2-(2′,6′-Difluorobiphenyl-4-yl)-5-methyloxazol-4-yl]-ethoxy}-phenoxy)-2-methylpropionic acid], for which the results for the pIC50 at huPPARα and at huPPARγ were 6.81 and 6.34, respectively. For the same molecule, the inhibition in vivo at 30 mg/kg in the test on db/db mice was determined as 134%.

On to `Cc1oc(-c2ccc(-c3ccccc3)cc2)nc1CCOc1cccc(OC(C)(C)C(=O)O)c1` [Example 21, 2-{3-[2-(2-Biphenyl-4-yl-5-methyloxazol-4-yl)ethoxy]phenoxy}-2-methylpropionic acid], for which the results for the pIC50 at huPPARα and at huPPARγ were 7.01 and 6.27, respectively. Besides, in the test on db/db mice, the inhibition in vivo at 30 mg/kg is 95%.

Regarding `Cc1sc(-c2cccc(-c3ccccc3)c2)nc1CCOc1ccc(OC(C)(C)C(=O)O)cc1` [Example 46, 2-{4-[2-(2-Biphenyl-3-yl-5-methyl-thiazol-4-yl)-ethoxy]-phenoxy}-2-methyl-propionic acid], the pIC50 at huPPARα was 6.35; on huPPARγ, 6.57. For the same molecule, the inhibition in vivo at 30 mg/kg with db/db mice amounted to 29%.
